This note sets out measurements from ChEMBL document CHEMBL6115031, “Structure-Based Optimization of Moracin M as Potent and Selective PDE4 Inhibitors with Antipsoriasis Effects” (J Med Chem, 2025).

The source made the active and inactive calls. A value given as a limit tells only on which side of the number the result lay.

For data set [1], the target named is T1, 3',5'-cyclic-AMP phosphodiesterase 4D (Homo sapiens, UniProt Q08499). Put plainly: Inhibition of human PDE4D2 (86 to 413 residues) extracted from Escherichia coli BL21 cells using 3H-cAMP/3H-cGMP as substrate preincubated with compound for 15 mins followed by substrate addition by liquid scintillation counter.
T1 sequence (Q08499 whole entry, the tested form may be a part): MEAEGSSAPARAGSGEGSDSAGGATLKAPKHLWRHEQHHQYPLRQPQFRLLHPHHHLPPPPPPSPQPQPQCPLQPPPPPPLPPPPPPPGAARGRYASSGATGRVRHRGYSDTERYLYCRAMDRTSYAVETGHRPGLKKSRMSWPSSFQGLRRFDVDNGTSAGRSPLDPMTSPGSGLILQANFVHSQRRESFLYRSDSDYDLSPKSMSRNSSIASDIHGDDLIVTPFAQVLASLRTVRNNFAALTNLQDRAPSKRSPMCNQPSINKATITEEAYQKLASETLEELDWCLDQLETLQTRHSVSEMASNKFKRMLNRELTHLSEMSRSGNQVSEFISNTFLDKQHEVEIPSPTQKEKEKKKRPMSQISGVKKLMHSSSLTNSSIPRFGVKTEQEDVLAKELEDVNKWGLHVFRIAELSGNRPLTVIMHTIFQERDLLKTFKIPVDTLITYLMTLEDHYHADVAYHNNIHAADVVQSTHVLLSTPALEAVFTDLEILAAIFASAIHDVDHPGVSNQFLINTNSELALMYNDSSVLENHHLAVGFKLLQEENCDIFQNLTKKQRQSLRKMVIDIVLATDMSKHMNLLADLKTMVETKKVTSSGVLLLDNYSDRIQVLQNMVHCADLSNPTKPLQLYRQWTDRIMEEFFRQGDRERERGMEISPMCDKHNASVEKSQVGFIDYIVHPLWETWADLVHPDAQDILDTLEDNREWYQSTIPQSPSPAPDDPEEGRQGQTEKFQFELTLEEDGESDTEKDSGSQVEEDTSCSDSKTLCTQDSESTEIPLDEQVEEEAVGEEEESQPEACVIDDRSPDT
Data set [2] is described as follows: Metabolic stability in rat liver microsomes assessed as half life at 1 uM incubated upto 60 mins in presence of NADPH by LC-MS/MS analysis. The class given is ADME, Microsome. A general note: Liver microsomes are vesicles of endoplasmic reticulum, rich in cytochrome P450 enzymes.
Data set [3] deals with HaCaT. Put plainly: Anti-psoriasis activity in M5-stimulated human HaCaT cells assessed as restoration of cAMP level at 20 uM incubated for 2 hrs by competitive ELISA. In kind it is functional, cell-based.
The test system of data set [4] is HaCaT. Put plainly: Inhibition of CREB phosphorylation in human HaCaT cells assessed as increase in pCREB/CREB ratio at 20 uM incubated for 2 hrs by Western blotting analysis. The class given is cell-based. (In general: Immunoblotting shows a protein as a band on a membrane.)
Data set [5] relates to Mus musculus. Put plainly: Anti-inflammatory activity in IMQ-induced psoriasis in female BALB/c mouse assessed as reduction in TNF-alpha mRNA level at 20 mg/kg administered topically as 0.3 % ointment pretreated with IMQ for 6 hrs followed by compound addition once daily for 7 days by q-PCR analysis. In kind it is functional, organism-based. To be noted: time 7.0 day.
For data set [6], the system named is Mus musculus. Put plainly: Anti-inflammatory activity in IMQ-induced psoriasis in female BALB/c mouse assessed as reduction in IL-1beta mRNA level at 20 mg/kg administered topically as 0.3 % ointment pretreated with IMQ for 6 hrs followed by compound addition once daily for 7 days by q-PCR analysis. The following applies: time 7.0 day. The class given is functional, organism-based.

The subject of data set [7] is Mus musculus. Put plainly: Anti-inflammatory activity in IMQ-induced psoriasis in female BALB/c mouse assessed as reduction in IL-6 mRNA level at 20 mg/kg administered topically as 0.3 % ointment pretreated with IMQ for 6 hrs followed by compound addition once daily for 7 days by q-PCR analysis. The following applies: time 7.0 day. The class given is functional, organism-based.

The subject of data set [8] is Mus musculus. Put plainly: Anti-inflammatory activity in IMQ-induced psoriasis in female BALB/c mouse assessed as reduction in IL-17 mRNA level at 20 mg/kg administered topically as 0.3 % ointment pretreated with IMQ for 6 hrs followed by compound addition once daily for 7 days by q-PCR analysis. In kind it is functional, organism-based. To be noted: time 7.0 day.
Data set [9] has as its system Mus musculus. Put plainly: Anti-inflammatory activity in IMQ-induced psoriasis in female BALB/c mouse assessed as reduction in CXCL-2 mRNA level at 20 mg/kg administered topically as 0.3 % ointment pretreated with IMQ for 6 hrs followed by compound addition once daily for 7 days by q-PCR analysis. In kind it is functional, organism-based. The following applies: time 7.0 day.

Data set [10] relates to Mus musculus. Put plainly: Anti-inflammatory activity in IMQ-induced psoriasis in female BALB/c mouse assessed as reduction in CCL-20 mRNA level at 20 mg/kg administered topically as 0.3 % ointment pretreated with IMQ for 6 hrs followed by compound addition once daily for 7 days by q-PCR analysis. In kind it is functional, organism-based. The following applies: time 7.0 day.

For data set [11], the system named is Mus musculus. Put plainly: Anti-psoriasis effect in IMQ-induced female BALB/c mouse model assessed as reduction in spinous layer thickness at 20 mg/kg administered topically as 0.3 % ointment pretreated with IMQ for 6 hrs followed by compound addition once daily for 7 days by H and E staining based analysis. In kind it is functional, organism-based. The following applies: time 7.0 day.

Data set [12] concerns Mus musculus. Put plainly: Anti-psoriasis effect in IMQ-induced female BALB/c mouse model assessed as reduction in abnormal rete ridges at 20 mg/kg administered topically as 0.3 % ointment pretreated with IMQ for 6 hrs followed by compound addition once daily for 7 days by H and E staining based analysis. The class given is functional, organism-based. To be noted: time 7.0 day.

The test system of data set [13] is Mus musculus. Put plainly: Anti-psoriasis effect in IMQ-induced female BALB/c mouse model assessed as reduction in fibroblast proliferation at 20 mg/kg administered topically as 0.3 % ointment pretreated with IMQ for 6 hrs followed by compound addition once daily for 7 days by H and E staining based analysis. The class given is functional, organism-based. The following applies: time 7.0 day.

Data set [14] concerns Mus musculus. Put plainly: Anti-psoriasis effect in IMQ-induced female BALB/c mouse model assessed as reduced bleeding in dermal papilla layers at 20 mg/kg administered topically as 0.3 % ointment pretreated with IMQ for 6 hrs followed by compound addition once daily for 7 days by H and E staining based analysis. The class given is functional, organism-based. To be noted: time 7.0 day.

Data set [15] addresses T1, 3',5'-cyclic-AMP phosphodiesterase 4D. Put plainly: Inhibition of PDE4D (unknown origin).

Regarding `O=C(O)CCCCOc1c(O)ccc2cc(-c3ccc(OC(F)F)c(OCC4CC4)c3)oc12`, the IC50 in [1] was 20.6 nM. Moreover, the half-life at 1 µM in data set [2] stood at 92.4 min.

`O=C(O)COc1c(O)ccc2cc(-c3ccc(OC(F)F)c(OCC4CC4)c3)oc12`: the concentration for half-maximal inhibition (IC50) in [1] worked out at 23.7 nM.

For `COC(=O)[C@@H](N)CCOc1c(O)ccc2cc(-c3ccc(OC(F)F)c(OCC4CC4)c3)oc12`, in data set [1], the IC50 turned out to be 29.5 nM. Also, the half-life at 1 µM in data set [2] stood at 4.8 min.

As to `O=C(O)[C@H]1C[C@H](Oc2c(O)ccc3cc(-c4ccc(OC(F)F)c(OCC5CC5)c4)oc23)CN1`, the IC50 in [1] is > 100 nM.

On to `CCOC(=O)CCCOc1c(O)ccc2cc(-c3ccc(OC(F)F)c(OCC4CC4)c3)oc12`, for which, in data set [1], the IC50 was determined as 22.7 nM.

On to `O=C(O)[C@@H]1C[C@H](Oc2c(O)ccc3cc(-c4ccc(OC(F)F)c(OCC5CC5)c4)oc23)CN1`, for which the IC50 in data set [1] was > 100 nM.

Turning to `COC(=O)CCCOc1c(O)ccc2cc(-c3ccc(OC(F)F)c(OCC4CC4)c3)oc12`, the IC50 in data set [1] turned out to be 14.4 nM. The half-life at 1 µM in data set [2] is 0.7 min.

Take `O=C(O)CCCOc1c(O)ccc2cc(-c3ccc(OC(F)F)c(OCC4CC4)c3)oc12`: the IC50 in [1] stood at 22 nM. Besides, the half-life at 1 µM in data set [2] stood at 1.2 min.

Regarding `O=C(Nc1c(Cl)cncc1Cl)c1ccc(OC(F)F)c(OCC2CC2)c1`, the outcome with HaCaT [3], in the data set with Mus musculus [5], in the data set on Mus musculus [6], with Mus musculus [7], in the data set on Mus musculus [8] and with Mus musculus [9] was Active. Besides, the result in the data set with Mus musculus [10], in the data set on Mus musculus [11], in the data set with Mus musculus [12], with Mus musculus [13] and in the data set with Mus musculus [14] was Active. Moreover, in the data set on HaCaT [4], the inhibition result was “Active”.

For the compound `N[C@@H](CCOc1c(O)ccc2cc(-c3ccc(OC(F)F)c(OCC4CC4)c3)oc12)C(=O)O`, in [1], the IC50 was > 100 nM.

For the compound `COC(=O)[C@@H]1C[C@H](Oc2c(O)ccc3cc(-c4ccc(OC(F)F)c(OCC5CC5)c4)oc23)CN1`, the IC50 in data set [1] stood at 10.9 nM. Further, in [2], the half-life at 1 µM amounted to 4 min.

In the case of `O=C(O)[C@@H]1C[C@@H](Oc2c(O)ccc3cc(-c4ccc(OC(F)F)c(OCC5CC5)c4)oc23)CN1`, in data set [1], the IC50 was > 100 nM.

On to `COC(=O)[C@H]1C[C@H](Oc2c(O)ccc3cc(-c4ccc(OC(F)F)c(OCC5CC5)c4)oc23)CN1`, for which the IC50 in data set [1] is 30 nM. Further, in data set [2], the half-life at 1 µM was 3.7 min.

On to `COC(=O)COc1c(O)ccc2cc(-c3ccc(OC(F)F)c(OCC4CC4)c3)oc12`, for which, in [1], the IC50 worked out at 39.1 nM.

Take `COC(=O)[C@@H]1C[C@@H](Oc2c(O)ccc3cc(-c4ccc(OC(F)F)c(OCC5CC5)c4)oc23)CN1`: in data set [1], the IC50 was determined as 43.7 nM. Further, in [2], the half-life at 1 µM was found to be 3.4 min.

Turning to `COC(=O)CCCCOc1c(O)ccc2cc(-c3ccc(OC(F)F)c(OCC4CC4)c3)oc12`, the IC50 in data set [1] stood at 23.5 nM. Further, the half-life at 1 µM in data set [2] was determined as 3.6 min.

In the case of `O=C(O)[C@H]1C[C@@H](Oc2c(O)ccc3cc(-c4ccc(OC(F)F)c(OCC5CC5)c4)oc23)CN1`, the IC50 in [1] was > 100 nM.

For the compound `Oc1ccc2cc(-c3ccc(OC(F)F)c(OCC4CC4)c3)oc2c1O`, the IC50 in data set [1] and in [15] was 421 nM each time. For the same compound, in [2], the half-life at 1 µM was 21 min.

One may read the IC50 as the point on the concentration scale where inhibition reaches its midpoint. As usually defined, the half-life is the time needed for the level to fall by half in the phase considered.
